Results from patent US20240101602A1, “ANTIMICROBIAL PEPTIDES AND METHOD OF PREVENTING OR TREATING INFECTION BY USING THE SAME” (priority 2020, published 2024).
Converted amounts (≈) assume the structure as drawn. Read-outs that look alike come from different tables or passages of the source. Residues, ends and D or L forms follow the SMILES beside them. *: point of attachment. Myristoyl = CCCCCCCCCCCCCC(=O)*

Experiments:
Cgl FST02 = type: cell-based, Colletotricum gloeosporioides
Procedure: (§1) The experiments were conducted in an optimal minimal medium for each pathogen. The media and growth conditions were described in Tables 2 and 3. MIC and MBC values were determined following the procedures described above. […] Fifty microliters of serially diluted peptides (2-fold the final concentration) were added in a 96-well polystyrene plate with 50 μL of the fungal spore suspension. […] The plates were incubated at an optimal temperature without shaking. […] MFC was determined as the lowest peptide concentration at which no fungal growth was observed.

[1] = system: Ralstonia solanacearum strain Pss4; conditions: Rs Pss4; optimal minimal medium, crude peptides (Table 9)
Pcc = test: In planta pathogen inoculation assay, lesion diameter; type: in vivo, Pectobacterium carotovorum subsp. carotovorum; conditions: detached leaves of tomato L390 and leaves of Arabidopsis Col0; final peptide concentration 16 μg/mL; 16 to 28 hours post-inoculation
[2] = system: Ralstonia solanacearum strain Pss190; conditions: Rs Pss190; optimal minimal medium, crude peptides (Table 9)
Bc = test: In planta pathogen inoculation assay, lesion diameter; type: in vivo, Botrytis cinerea; conditions: detached leaves of tomato L390 and leaves of Arabidopsis Col0; final peptide concentration 16 μg/mL; 47 to 70 hours post-inoculation
[3] = system: bacteria, fungal spores, and fungal mycelia; type: cell-based; conditions: SYTOX Green, crude peptides, room temperature in dark for 2 h
Botrytis cinerea = type: cell-based
Procedure: as §1

Erwinia chrysanthemi = type: cell-based
Procedure: (§2) The effect of peptide length on the antimicrobial activity was investigated by deciding the minimal inhibitory concentration (MIC) and minimal bactericidal concentration (MBC) for each peptide against the pathogen with the media and growth conditions of phytopathogenic bacteria and E. coli as described in Table 1. Single bacterial colony grown on an optimal rich agar medium was picked, and each grew in 3 mL of the same rich liquid medium for 4 to 6 h. For experiments carried out in the rich medium, the bacterial broth culture was then diluted in the same medium to give a final concentration of OD600=0.08, and then further diluted 100 folds in the same medium. For experiments carried out in the minimal medium, the bacterial cells were collected from the bacterial liquid culture by centrifugation, re-suspended in an optimal minimal medium to give a final concentration of OD600=0.08, and then further diluted 100 folds in the same minimal medium. Fifty microliters of serially diluted peptides (2-fold the final concentration) were added in a 96-well polystyrene plate with 50 μL of the bacterial culture. […] The plates were incubated at an optimal temperature without shaking. […] MBC was determined as the lowest peptide concentration at which no colonies formed. The experiments were conducted in an optimal minimal medium for each pathogen. The media and growth conditions were described in Tables 2 and 3. MIC and MBC values were determined following the procedures described above. […] Fifty microliters of serially diluted peptides (2-fold the final concentration) were added in a 96-well polystyrene plate with 50 μL of the fungal spore suspension.

[4] = system: Pectobacterium carotovorum subsp. carotovorum; type: cell-based
Procedure: as §2

[5] = system: Xanthomonas oryzae pv. oryzae strain Xoo28; conditions: Xoo Xoo28; rich medium, 24 h, purified peptides
[6] = system: Agrobacterium tumefaciens strain Atu C58C1; conditions: rich medium, 24 h, purified peptides
[7] = system: Xanthomonas campestris pv. campestris strain Xcc17; test: IC50 of bacterial growth (OD600) in rich liquid medium; type: cell-based; conditions: Xcc Xcc17, 24 h, purified peptides
Procedure: (§3) To measure the antimicrobial activity, single colony grown on an optimal rich agar medium for each bacterium was picked and grew in 3 mL of the same rich liquid medium for 4 to 6 h. The bacterial culture was then diluted in the same medium to give a final concentration of OD600=0.08 and then further diluted […] in the same medium. In each well of a 96-well polystyrene plate, 90 μL of the diluted culture was mixed with 10 μL of the peptide to give a peptide concentration of 0, 2, 10, and 20 μg/mL (final cell concentration is 5×10^5 CFU/mL). OD600 was measured after incubation at an optimal temperature for 24 h. IC50 was determined as the lowest peptide concentration inhibiting 50% of bacterial growth.

[8] = system: Xanthomonas euvesicatoria strain Xvt28; test: as above; type: cell-based; conditions: Xev Xvt28, 24 h, purified peptides
Procedure: as §3

[9] = Circular dichroism spectroscopy, secondary structure deconvolution
[10] = system: Escherichia coli strain DH5a; conditions: Eco DH5α; rich medium, 24 h, purified peptides
[11] = system: Candida albicans 12-99 (fluconazole-resistant)
[12] = system: Candida albicans 89 (echinocandin-resistant)
[13] = Candida albicans SC5314 (Tables 10, 14)

Compound | MBC/MFC [1] [µg/mL] | MIC [1] [µg/mL] | disease lesions caused by Pcc (Pcc) | MBC/MFC [2] [µg/mL] | MIC [2] [µg/mL] | disease lesions caused by Bc (Bc) | membranolytic effect on the cell walls of bacteria, fungal spores, and fungal mycelia [3] | MBC/MFC (Botrytis cinerea) [µg/mL] | MBC/MFC (Erwinia chrysanthemi) [µg/mL] | MIC (Erwinia chrysanthemi) [µg/mL] | MBC/MFC [4] [µg/mL] | MIC [4] [µg/mL] | other results
CCCCCCCCCCCCCC(=O)N[C@@H](Cc1c[nH]c2ccccc12)C(=O)N[C@@H](CCCCN)C(=O)N[C@@H](CCCCN)C(=O)N[C@@H](CC(C)C)C(=O)N[C@@H](CCCCN)C(=O)N[C@@H](CCCCN)C(=O)N[C@@H](CC(C)C)C(=O)N[C@@H](CC(C)C)C(=O)N[C@@H](CCCCN)C(=O)N[C@@H](CCCCN)C(=O)N[C@@H](CC(C)C)C(N)=O [pepD3M] (Myristoyl-WKKLKKLLKKL-NH2) | 12.0 (≈ 7.34 µM) | 8.0 (≈ 4.89 µM) | significantly reduced disease lesions | 14.0 (≈ 8.56 µM) | 12.0 (≈ 7.34 µM) | significantly reduced disease lesions | significant membranolytic effect | 6.0 (≈ 3.67 µM) | 6.0 (≈ 3.67 µM) | 5.0 (≈ 3.06 µM) | 4.0 (≈ 2.45 µM) | 4.0 (≈ 2.45 µM) | MBC/MFC (Cgl FST02): 14.0 µg/mL (≈ 8.56 µM); MIC (Cgl FST02): 14.0 µg/mL (≈ 8.56 µM); MIC (Botrytis cinerea): 5.3 µg/mL (≈ 3.24 µM)
Ac-WKLLKKLLKLLKKLLKLL-NH2 [pepB] |  |  |  |  |  |  |  |  |  |  |  |  | IC50 [5]: — (“—” indicates no antimicrobial activity being detected at the highest peptide concentration (20 μg/mL) tested in this study.); IC50 [6]: — (“—” indicates no antimicrobial activity being detected at the highest peptide concentration (20 μg/mL) tested in this study.); IC50 [7]: — (“—” indicates no antimicrobial activity being detected at the highest peptide concentration (20 μg/mL) tested in this study.); IC50 [8]: 16.7 µg/mL; α-helix formation ([9]; 10% TFE): 90%; α-helix content ([9]; dissolved in water, structural deconvolution of CD spectra): about 25%; IC50 [10]: — (“—” indicates no antimicrobial activity being detected at the highest peptide concentration (20 μg/mL) tested in this study.); MIC (Candida albicans SC5314; Candida albicans SC5314, 48 h at 35° C., 0.125 to 64 μg/mL (Table 5)): — (“—” indicates no antimicrobial activity being detected at the highest peptide concentration (64 μg/mL) tested.)
CCCCCCCCCCCCCC(=O)N[C@@H](Cc1c[nH]c2ccccc12)C(=O)N[C@@H](CCCCN)C(=O)N[C@@H](CCCCN)C(=O)N[C@@H](CC(C)C)C(=O)N[C@@H](CCCCN)C(=O)N[C@@H](CCCCN)C(=O)N[C@@H](CC(C)C)C(=O)N[C@@H](CC(C)C)C(=O)N[C@@H](CCCCN)C(=O)N[C@@H](CCCCN)C(=O)N[C@@H](CC(C)C)C(=O)N[C@@H](CCCCN)C(=O)N[C@@H](CCCCN)C(=O)N[C@@H](CC(C)C)C(N)=O [pepD2M] (Myristoyl-WKKLKKLLKKLKKL-NH2) | 10.0 (≈ 4.99 µM) | 8.0 (≈ 3.99 µM) | significantly reduced disease lesions | 8.0 (≈ 3.99 µM) | 8.0 (≈ 3.99 µM) | significantly reduced disease lesions | significant membranolytic effect | 12.0 (≈ 5.99 µM) | 6.0 (≈ 2.99 µM) | 4.0 (≈ 2 µM) | 4.0 (≈ 2 µM) | 4.0 (≈ 2 µM) | MFC (Cgl FST02): 14.0 µg/mL (≈ 6.98 µM); MBC/MFC (Cgl FST02; Cgl FST02, optimal minimal medium, crude peptides (Table 9)): 16.0 µg/mL (≈ 7.98 µM); MFC [11]: 64 µg/mL (≈ 31.9 µM); MIC [11]: 8 µg/mL (≈ 3.99 µM); MFC (Candida albicans SC5314; [13]): 64 µg/mL (≈ 31.9 µM); MIC (Candida albicans SC5314; [13]): 32 µg/mL (≈ 16 µM); MFC (Botrytis cinerea): 18.7 µg/mL (≈ 9.33 µM); MFC [12]: 64 µg/mL (≈ 31.9 µM); MIC [12]: 32 µg/mL (≈ 16 µM)
